# Measured values: the supplement of paper PMC9663587
# Key:
# Experiment in all cases: GR value, 72 h; higher = faster growth (1 = untreated, <0 = killing);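 also: breast cancer and non-malignant breast epithelial lines, nine half-log doses, viable cells counted by Hoechst and LIVE/DEAD dye imaging versus time-zero plates and DMSO controls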
# Olaparib/AZD2281 = compound: O=C(c1cc(Cc2n[nH]c(=O)c3ccccc23)ccc1F)N1CCN(C(=O)C2CC2)CC1 [Olaparib/AZD2281]
# Torin2 = compound: C1=CC(=CC(=C1)N2C(=O)C=CC3=CN=C4C=CC(=CC4=C32)C5=CN=C(C=C5)N)C(F)(F)F [Torin2]
# [1] = compound: CNc1nc(-c2ccc3c(N)n[nH]c3c2)cc(N2C[C@@H](C(=O)NC3CCCCC3)CC[C@H]2C)n1
# THZ-P1-2 = compound: CN(C)C/C=C/C(=O)NC1=CC=C(C=C1)C(=O)NC2=CC=CC(=C2)NC3=NC=NC(=C3)C4=CNC5=CC=CC=C54 [THZ-P1-2]
# BVD523 = compound: CC(C)Nc1cc(-c2c[nH]c(C(=O)N[C@H](CO)c3cccc(Cl)c3)c2)c(Cl)cn1 [BVD523]
# SHP099 = compound: CC1(CCN(CC1)C2=CN=C(C(=N2)N)C3=C(C(=CC=C3)Cl)Cl)N [SHP099]
# AZD6738 = compound: C[C@@H]1COCCN1c1cc(C2([S@](C)(=N)=O)CC2)nc(-c2cc[nH]c3nccc2-3)n1 [AZD6738]
# [2] = compound: COc1cccc(OCCCN)c1-c1cc(Nc2cnc(C#N)cn2)n[nH]1
# Taselisib/GDC0032 = compound: Cc1nc(-c2cn3c(n2)-c2ccc(-c4cnn(C(C)(C)C(N)=O)c4)cc2OCC3)n(C(C)C)n1 [Taselisib/GDC0032]
# Luminespib/NVP-AUY922 = compound: CCNC(=O)c1noc(-c2cc(C(C)C)c(O)cc2O)c1-c1ccc(CN2CCOCC2)cc1 [Luminespib/NVP-AUY922]
# FMF-03-145-1 = compound: CCC(=O)Nc1ccc(C(=O)Nc2ccc(Nc3ncc4c(n3)N(C)c3ccc(C)cc3C(=O)N4C)cc2)cc1 [FMF-03-145-1]
# Rucaparib = compound: CNCc1ccc(-c2[nH]c3cc(F)cc4c3c2CCNC4=O)cc1 [Rucaparib]
cell line,measurement,setting,value
AU565,GR value,Olaparib/AZD2281; 0.001 µM,0.901 GR
same,GR value,Olaparib/AZD2281; 0.003162 µM,1 GR
same,GR value,Olaparib/AZD2281; 0.01 µM,1.02 GR
same,GR value,Olaparib/AZD2281; 0.03162 µM,1.04 GR
same,GR value,Olaparib/AZD2281; 0.1 µM,1 GR
same,GR value,Olaparib/AZD2281; 0.3162 µM,0.907 GR
same,GR value,Olaparib/AZD2281; 1 µM,0.942 GR
same,GR value,Olaparib/AZD2281; 3.162 µM,0.979 GR
same,GR value,Olaparib/AZD2281; 10 µM,0.577 GR
same,GR value,Torin2; 0.0001 µM,1.06 GR
same,GR value,Torin2; 0.0003162 µM,1.02 GR
same,GR value,Torin2; 0.001 µM,0.884 GR
same,GR value,Torin2; 0.003162 µM,0.698 GR
same,GR value,Torin2; 0.01 µM,0.222 GR
same,GR value,Torin2; 0.03162 µM,-0.0323 GR
same,GR value,Torin2; 0.1 µM,-0.152 GR
same,GR value,Torin2; 0.3162 µM,-0.239 GR
same,GR value,Torin2; 1 µM,-0.395 GR
same,GR value,[1]; 0.001 µM,0.974 GR
same,GR value,[1]; 0.003162 µM,0.901 GR
same,GR value,[1]; 0.01 µM,0.723 GR
same,GR value,[1]; 0.03162 µM,0.933 GR
same,GR value,[1]; 0.1 µM,0.894 GR
same,GR value,[1]; 0.3162 µM,0.766 GR
same,GR value,[1]; 1 µM,0.655 GR
same,GR value,[1]; 3.162 µM,0.747 GR
same,GR value,[1]; 10 µM,0.392 GR
same,GR value,THZ-P1-2; 0.01 µM,0.964 GR
same,GR value,THZ-P1-2; 0.03162 µM,1.02 GR
same,GR value,THZ-P1-2; 0.1 µM,0.979 GR
same,GR value,THZ-P1-2; 0.3162 µM,0.842 GR
same,GR value,THZ-P1-2; 1 µM,0.865 GR
same,GR value,THZ-P1-2; 3.162 µM,0.881 GR
same,GR value,THZ-P1-2; 10 µM,-0.648 GR
same,GR value,BVD523; 0.001 µM,1.17 GR
same,GR value,BVD523; 0.003162 µM,0.925 GR
same,GR value,BVD523; 0.01 µM,1.04 GR
same,GR value,BVD523; 0.03162 µM,0.941 GR
same,GR value,BVD523; 0.1 µM,1.06 GR
same,GR value,BVD523; 0.3162 µM,0.956 GR
same,GR value,BVD523; 1 µM,0.985 GR
same,GR value,BVD523; 3.162 µM,0.761 GR
same,GR value,BVD523; 10 µM,0.525 GR
same,GR value,SHP099; 0.001 µM,0.972 GR
same,GR value,SHP099; 0.003162 µM,0.94 GR
same,GR value,SHP099; 0.01 µM,0.815 GR
same,GR value,SHP099; 0.03162 µM,1.07 GR
same,GR value,SHP099; 0.1 µM,1 GR
same,GR value,SHP099; 0.3162 µM,0.949 GR
same,GR value,SHP099; 1 µM,0.925 GR
same,GR value,SHP099; 3.162 µM,0.932 GR
same,GR value,SHP099; 10 µM,0.939 GR
same,GR value,AZD6738; 0.001 µM,0.973 GR
same,GR value,AZD6738; 0.003162 µM,0.919 GR
same,GR value,AZD6738; 0.01 µM,1.05 GR
same,GR value,AZD6738; 0.03162 µM,1.14 GR
same,GR value,AZD6738; 0.1 µM,1 GR
same,GR value,AZD6738; 0.3162 µM,0.982 GR
same,GR value,AZD6738; 1 µM,0.897 GR
same,GR value,AZD6738; 3.162 µM,1.08 GR
same,GR value,AZD6738; 10 µM,0.281 GR
same,GR value,[2]; 10 pM,0.889 GR
same,GR value,[2]; 31.6 pM,0.97 GR
same,GR value,[2]; 0.0001 µM,1.1 GR
same,GR value,[2]; 0.0003162 µM,1.09 GR
same,GR value,[2]; 0.001 µM,0.219 GR
same,GR value,[2]; 0.003162 µM,0.112 GR
same,GR value,[2]; 0.01 µM,0.0322 GR
same,GR value,[2]; 0.03162 µM,0.0412 GR
same,GR value,[2]; 0.1 µM,0.077 GR
same,GR value,Taselisib/GDC0032; 0.001 µM,0.728 GR
same,GR value,Taselisib/GDC0032; 0.003162 µM,0.58 GR
same,GR value,Taselisib/GDC0032; 0.01 µM,0.208 GR
same,GR value,Taselisib/GDC0032; 0.03162 µM,-0.0424 GR
same,GR value,Taselisib/GDC0032; 0.1 µM,-0.111 GR
same,GR value,Taselisib/GDC0032; 0.3162 µM,-0.171 GR
same,GR value,Taselisib/GDC0032; 1 µM,-0.209 GR
same,GR value,Taselisib/GDC0032; 3.162 µM,-0.225 GR
same,GR value,Taselisib/GDC0032; 10 µM,-0.538 GR
same,GR value,Luminespib/NVP-AUY922; 0.0001 µM,0.887 GR
same,GR value,Luminespib/NVP-AUY922; 0.0003162 µM,0.966 GR
same,GR value,Luminespib/NVP-AUY922; 0.001 µM,0.942 GR
same,GR value,Luminespib/NVP-AUY922; 0.003162 µM,0.648 GR
same,GR value,Luminespib/NVP-AUY922; 0.01 µM,0.165 GR
same,GR value,Luminespib/NVP-AUY922; 0.03162 µM,-0.079 GR
same,GR value,Luminespib/NVP-AUY922; 0.1 µM,-0.156 GR
same,GR value,Luminespib/NVP-AUY922; 0.3162 µM,-0.214 GR
same,GR value,Luminespib/NVP-AUY922; 1 µM,-0.227 GR
same,GR value,FMF-03-145-1; 0.0001 µM,0.967 GR
same,GR value,FMF-03-145-1; 0.0003162 µM,0.975 GR
same,GR value,FMF-03-145-1; 0.001 µM,0.99 GR
same,GR value,FMF-03-145-1; 0.003162 µM,0.971 GR
same,GR value,FMF-03-145-1; 0.01 µM,-0.215 GR
same,GR value,FMF-03-145-1; 0.03162 µM,-0.0803 GR
same,GR value,FMF-03-145-1; 0.1 µM,-0.163 GR
same,GR value,Rucaparib; 0.001 µM,0.952 GR
same,GR value,Rucaparib; 0.003162 µM,1.09 GR
same,GR value,Rucaparib; 0.01 µM,0.804 GR
same,GR value,Rucaparib; 0.03162 µM,0.916 GR
same,GR value,Rucaparib; 0.1 µM,0.925 GR
same,GR value,Rucaparib; 0.3162 µM,0.845 GR
same,GR value,Rucaparib; 1 µM,1.01 GR
same,GR value,Rucaparib; 3.162 µM,0.932 GR
same,GR value,Rucaparib; 10 µM,0.714 GR
